Data taken from the NIST ThermoML archive (doi:10.1021/je200140m).
Numbers after ± are expanded uncertainties. Values belong to the compound of their own block, whether it stands above or below them.

What was measured:
[1] = Liquid, Closed cell (Static) method
[2] = refractive index (Na D-line) (dimensionless); conditions: 101.33 kPa, Liquid, Standard Abbe refractometry

vapor or sublimation pressure ([1]; 308.1 K): 788 ± 2 kPa
vapor or sublimation pressure ([1]; 308.13 K): 785.2 ± 1.8 kPa
vapor or sublimation pressure ([1]; 335.65 K): 1539.6 ± 2.6 kPa
Structure (SMILES): COC [dimethyl ether]

vapor or sublimation pressure ([1]; 308.12 K): 30.8 ± 0.8 kPa
vapor or sublimation pressure ([1]; 335.66 K): 83 ± 1 kPa
refractive index ([2]; 298.1 K): 1.37514 ± 0.00073
Structure (SMILES): CCCCCC [hexane]

vapor or sublimation pressure ([1]; 358.93 K): 221.4 ± 1 kPa
refractive index ([2]; 293.1 K): 1.32853 ± 0.00073
Structure (SMILES): CO [methanol]

vapor or sublimation pressure ([1]; 308.11 K): 114.7 ± 0.9 kPa
vapor or sublimation pressure ([1]; 358.92 K): 550.4 ± 1.4 kPa
refractive index ([2]; 293.1 K): 1.34359 ± 0.00076
Structure (SMILES): COC=O [methyl methanoate]
